Reference: paper PMC2248166, “Quantitative peptide binding motifs for 19 human and mouse MHC class I molecules derived using positional scanning combinatorial peptide libraries” (Immunome Research, 2008)
Where a SMILES comes first, the peptide text is derived from it.

target: HLA B*1501 (Homo sapiens, UniProt P01889, A329T/A93T/A95T/C349S/D201E/D98Y/E187L/E204Q/E69M/E70A/K202T/N87E/Q94N/R155S/R180W/S121R/S35A/S48A/V306I/V36M/Y140S/Y91S); assay: biochemical; assay type: binding

How did the IC50 turn out when `CC[C@H](C)[C@H](NC(=O)[C@H](C)NC(=O)[C@H](CC(C)C)NC(=O)[C@@H](N)CC(C)C)C(=O)N[C@@H](CO)C(=O)N[C@@H](C)C(=O)N[C@H](C(=O)N[C@@H](Cc1ccc(O)cc1)C(=O)N[C@@H](Cc1ccccc1)C(=O)O)C(C)C` [3102.0875] (H-LLAISAVYF-OH) was run?
The IC50 was 0.032 µM.

Which IC50 does the source give for `CC[C@H](C)[C@H](NC(=O)[C@H](CC(N)=O)NC(=O)[C@@H]1CCCN1C(=O)[C@H](CS)NC(=O)[C@@H](NC(=O)[C@@H](N)CCSC)C(C)C)C(=O)N[C@@H](CC(N)=O)C(=O)N[C@@H](C)C(=O)N[C@@H](Cc1ccccc1)C(=O)O` [3102.0876] (H-MVCPNINAF-OH) here?
Its IC50 is 0.022 µM.

With `CSCC[C@H](NC(=O)[C@H](Cc1ccc(O)cc1)NC(=O)[C@H](CO)NC(=O)[C@H](CCC(=O)O)NC(=O)[C@H](Cc1ccc(O)cc1)NC(=O)[C@H](CS)NC(=O)[C@H](Cc1c[nH]cn1)NC(=O)[C@H](CC(C)C)NC(=O)[C@@H](N)CCSC)C(=O)O` [3102.0879] (H-MLHCYESYM-OH) as the compound, how does the IC50 read?
Its IC50 is 0.097 µM.

How did the IC50 turn out when `CSCC[C@H](NC(=O)[C@H](Cc1c[nH]cn1)NC(=O)[C@H](CS)NC(=O)[C@@H](NC(=O)[C@H](CC(N)=O)NC(=O)[C@H](CC(N)=O)NC(=O)[C@@H](NC(=O)[C@H](CO)NC(=O)[C@@H](N)C(C)C)C(C)C)C(C)C)C(=O)O` [3102.0880] (H-VSVNNVCHM-OH) was run?
Its IC50 is 0.014 µM.

Which IC50 does the source give for `CSCC[C@H](NC(=O)[C@@H](N)C(C)C)C(=O)N[C@H](C(=O)N[C@@H](CCCCN)C(=O)N[C@@H](Cc1c[nH]c2ccccc12)C(=O)N[C@@H](CS)C(=O)N[C@@H](C)C(=O)N1CCC[C@H]1C(=O)N[C@@H](Cc1ccccc1)C(=O)O)[C@@H](C)O` [3102.0886] (H-VMTKWCAPF-OH) here?
The IC50 was 0.0019 µM.

How did the IC50 turn out when `CSCC[C@H](NC(=O)[C@H](C)NC(=O)[C@H](CCCCN)NC(=O)[C@H](Cc1ccccc1)NC(=O)[C@@H](NC(=O)[C@@H](N)CC(N)=O)C(C)C)C(=O)N[C@@H](CCC(=O)O)C(=O)N[C@H](C(=O)N[C@@H](Cc1ccccc1)C(=O)O)[C@@H](C)O` [3102.0887] (H-NVFKAMETF-OH) was run?
The IC50 was 0.023 µM.

For `CC[C@H](C)[C@H](NC(=O)[C@H](CCC(=O)O)NC(=O)[C@@H](N)CO)C(=O)N[C@@H](CCCNC(=N)N)C(=O)N[C@@H](Cc1c[nH]c2ccccc12)C(=O)N[C@@H](CCC(=O)O)C(=O)N[C@@H](CCC(=O)O)C(=O)N[C@@H](CO)C(=O)N[C@@H](Cc1ccccc1)C(=O)O` [3102.0890] (H-SEIRWEESF-OH), which IC50 is on record?
The IC50 was 0.047 µM.

With `CC[C@H](C)[C@H](N)C(=O)N[C@H](C(=O)N[C@H](C(=O)N1CCC[C@H]1C(=O)N[C@@H](Cc1ccccc1)C(=O)N[C@H](C(=O)N[C@@H](C)C(=O)N[C@@H](Cc1ccc(O)cc1)C(=O)N[C@@H](Cc1ccccc1)C(=O)O)[C@@H](C)CC)[C@@H](C)CC)[C@@H](C)CC` [3102.0892] (H-IIIPFIAYF-OH) as the compound, how does the IC50 read?
The IC50 was 0.0016 µM.

With `CSCC[C@H](N)C(=O)N[C@H](C(=O)N[C@@H](Cc1ccc(O)cc1)C(=O)N[C@@H](CCCCN)C(=O)N[C@@H](CC(C)C)C(=O)N[C@H](C(=O)N[C@@H](CC(C)C)C(=O)N[C@@H](CC(C)C)C(=O)N[C@@H](Cc1ccccc1)C(=O)O)C(C)C)C(C)C` [3102.0893] (H-MVYKLVLLF-OH) as the compound, how does the IC50 read?
The IC50 was 0.071 µM.

For `CC[C@H](C)[C@H](NC(=O)[C@H](Cc1c[nH]cn1)NC(=O)[C@H](CC(=O)O)NC(=O)[C@H](Cc1c[nH]cn1)NC(=O)[C@H](CO)NC(=O)[C@@H](N)Cc1ccccc1)C(=O)NCC(=O)N[C@@H](Cc1c[nH]cn1)C(=O)NCC(=O)O` [3102.0897] (H-FSHDHIGHG-OH), which IC50 is on record?
The IC50 was 0.032 µM.

How did the IC50 turn out when `CC[C@H](C)[C@H](NC(=O)[C@H](CCSC)NC(=O)[C@@H](N)CCSC)C(=O)N[C@@H](CC(=O)O)C(=O)N[C@@H](CC(=O)O)C(=O)N[C@@H](Cc1ccccc1)C(=O)NCC(=O)N[C@H](C(=O)N[C@@H](C)C(=O)O)[C@@H](C)O` [3102.0898] (H-MMIDDFGTA-OH) was run?
The IC50 was 0.0076 µM.

`CC[C@H](C)[C@H](NC(=O)[C@@H](N)CC(C)C)C(=O)N[C@@H](CC(N)=O)C(=O)N[C@@H](CC(N)=O)C(=O)NCC(=O)N[C@@H](CCCCN)C(=O)N[C@@H](CS)C(=O)N[C@H](C(=O)N[C@@H](Cc1ccccc1)C(=O)O)[C@@H](C)O` [3102.0899] (H-LINNGKCTF-OH) was tested. Which IC50 did it give?
The IC50 was 0.062 µM.

`CC[C@H](C)[C@H](N)C(=O)N[C@@H](CC(C)C)C(=O)N[C@@H](CCCCN)C(=O)N[C@@H](CCCCN)C(=O)N[C@@H](CC(C)C)C(=O)N[C@@H](CO)C(=O)N1CCC[C@H]1C(=O)N[C@@H](Cc1ccc(O)cc1)C(=O)N[C@@H](Cc1ccccc1)C(=O)O` [3102.0903] (H-ILKKLSPYF-OH) was tested. Which IC50 did it give?
The IC50 was 0.0012 µM.

`CC[C@H](C)[C@H](NC(=O)[C@H](C)NC(=O)[C@H](CC(N)=O)NC(=O)[C@H](Cc1ccccc1)NC(=O)[C@H](CC(C)C)NC(=O)[C@@H](N)Cc1ccc(O)cc1)C(=O)N[C@@H](CCC(=O)O)C(=O)N[C@H](C(=O)N[C@@H](CCSC)C(=O)O)[C@@H](C)O` [3102.0905] (H-YLFNAIETM-OH) was tested. Which IC50 did it give?
The IC50 was 0.0014 µM.

`CSCC[C@H](N)C(=O)N[C@@H](Cc1ccc(O)cc1)C(=O)N[C@@H](CCCCN)C(=O)N[C@@H](CCCCN)C(=O)N[C@@H](C)C(=O)N[C@@H](CCC(=O)O)C(=O)N[C@@H](C)C(=O)N[C@@H](CO)C(=O)N[C@@H](Cc1ccccc1)C(=O)O` [3102.0906] (H-MYKKAEASF-OH) was tested. Which IC50 did it give?
Its IC50 is 0.069 µM.

With `CC[C@H](C)[C@H](NC(=O)[C@H](Cc1ccccc1)NC(=O)[C@@H](N)Cc1ccc(O)cc1)C(=O)N[C@@H](CCCCN)C(=O)N[C@@H](Cc1c[nH]cn1)C(=O)N[C@H](C(=O)N[C@@H](CC(C)C)C(=O)N[C@@H](C)C(=O)N[C@@H](Cc1ccccc1)C(=O)O)C(C)C` [3102.0907] (H-YFIKHVLAF-OH) as the compound, how does the IC50 read?
Its IC50 is 0.0025 µM.

For `CC[C@H](C)[C@H](NC(=O)[C@H](CCC(=O)O)NC(=O)[C@H](CS)NC(=O)[C@H](CCCNC(=N)N)NC(=O)[C@@H](NC(=O)[C@@H](N)CCCCN)[C@@H](C)CC)C(=O)N[C@H](C(=O)N[C@@H](CO)C(=O)N[C@@H](Cc1ccccc1)C(=O)O)[C@@H](C)O` [3102.0909] (H-KIRCEITSF-OH), which IC50 is on record?
The IC50 was 0.0043 µM.

For `CC[C@H](C)[C@H](NC(=O)[C@@H](N)CCC(=O)O)C(=O)N[C@@H](C)C(=O)N[C@@H](CCCCN)C(=O)N[C@@H](Cc1ccc(O)cc1)C(=O)NCC(=O)N[C@@H](Cc1c[nH]cn1)C(=O)N[C@@H](CO)C(=O)N[C@@H](Cc1ccccc1)C(=O)O` [3102.0911] (H-EIAKYGHSF-OH), which IC50 is on record?
Its IC50 is 0.058 µM.

Which IC50 does the source give for `CSCC[C@H](NC(=O)[C@@H](N)CCCNC(=N)N)C(=O)N[C@@H](Cc1ccccc1)C(=O)N[C@@H](Cc1c[nH]cn1)C(=O)N[C@@H](Cc1ccccc1)C(=O)N[C@@H](Cc1ccccc1)C(=O)N[C@@H](CCC(=O)O)C(=O)N[C@@H](Cc1c[nH]cn1)C(=O)N[C@@H](CCC(=O)O)C(=O)O` [3102.0915] (H-RMFHFFEHE-OH) here?
The IC50 was 0.067 µM.

How did the IC50 turn out when `CC[C@H](C)[C@H](NC(=O)[C@@H]1CCCN1C(=O)[C@H](CCC(=O)O)NC(=O)[C@H](CC(N)=O)NC(=O)[C@H](CO)NC(=O)[C@H](CC(=O)O)NC(=O)[C@H](Cc1ccccc1)NC(=O)[C@H](CC(C)C)NC(=O)[C@@H](N)CC(C)C)C(=O)O` [3102.0916] (H-LLFDSNEPI-OH) was run?
Its IC50 is 0.016 µM.

`CC[C@H](C)[C@H](NC(=O)[C@H](C)NC(=O)[C@@H](N)Cc1ccccc1)C(=O)N[C@@H](CO)C(=O)N[C@@H](Cc1ccc(O)cc1)C(=O)N[C@@H](CS)C(=O)N[C@@H](CCCNC(=N)N)C(=O)N[C@@H](C)C(=O)N[C@@H](Cc1ccccc1)C(=O)O` [3102.0920] (H-FAISYCRAF-OH) was tested. Which IC50 did it give?
The IC50 was 0.076 µM.

`CSCC[C@H](NC(=O)[C@H](CCCNC(=N)N)NC(=O)[C@H](CS)NC(=O)[C@@H]1CCCN1C(=O)[C@H](CO)NC(=O)[C@@H](N)CCSC)C(=O)N[C@@H](Cc1ccccc1)C(=O)N[C@@H](CO)C(=O)N[C@@H](Cc1ccccc1)C(=O)O` [3102.0921] (H-MSPCRMFSF-OH) was tested. Which IC50 did it give?
Its IC50 is 0.017 µM.

How did the IC50 turn out when `CC(C)C[C@H](NC(=O)[C@H](CO)NC(=O)[C@H](CCCCN)NC(=O)[C@H](CC(C)C)NC(=O)[C@@H](N)CO)C(=O)N[C@@H](Cc1ccc(O)cc1)C(=O)N[C@@H](CCC(=O)O)C(=O)N[C@@H](C)C(=O)N[C@@H](Cc1ccccc1)C(=O)O` [3102.0923] (H-SLKSLYEAF-OH) was run?
Its IC50 is 0.02 µM.

With `CC(C)C[C@H](NC(=O)[C@H](CS)NC(=O)[C@H](CCCCN)NC(=O)[C@H](CCCCN)NC(=O)[C@H](Cc1ccccc1)NC(=O)[C@H](CO)NC(=O)[C@@H](N)Cc1ccccc1)C(=O)N[C@H](C(=O)N[C@@H](Cc1ccc(O)cc1)C(=O)O)C(C)C` [3102.0925] (H-FSFKKCLVY-OH) as the compound, how does the IC50 read?
The IC50 was 0.0047 µM.

With `CC[C@H](C)[C@H](NC(=O)[C@H](CO)NC(=O)[C@@H](N)CCCNC(=N)N)C(=O)N[C@@H](CO)C(=O)N[C@@H](CCCNC(=N)N)C(=O)N[C@H](C(=O)N[C@@H](CCC(=O)O)C(=O)N[C@@H](CC(N)=O)C(=O)N[C@@H](Cc1ccccc1)C(=O)O)[C@@H](C)O` [3102.0929] (H-RSISRTENF-OH) as the compound, how does the IC50 read?
The IC50 was 0.0048 µM.

How did the IC50 turn out when `CC[C@H](C)[C@H](N)C(=O)N[C@@H](CO)C(=O)N[C@@H](CCCCN)C(=O)N[C@@H](CC(N)=O)C(=O)N[C@@H](C)C(=O)N[C@@H](Cc1ccccc1)C(=O)N[C@@H](CO)C(=O)N[C@@H](CS)C(=O)N[C@@H](CCSC)C(=O)O` [3102.0935] (H-ISKNAFSCM-OH) was run?
Its IC50 is 0.078 µM.

`CSCC[C@H](NC(=O)[C@H](CCC(N)=O)NC(=O)[C@H](CO)NC(=O)[C@H](CO)NC(=O)[C@@H](N)CC(C)C)C(=O)N[C@H](C(=O)N[C@@H](CO)C(=O)N[C@H](C(=O)N[C@@H](Cc1ccccc1)C(=O)O)[C@@H](C)O)[C@@H](C)O` [3102.0940] (H-LSSQMTSTF-OH) was tested. Which IC50 did it give?
The IC50 was 0.004 µM.

Which IC50 does the source give for `CSCC[C@H](NC(=O)[C@H](CO)NC(=O)[C@@H](NC(=O)[C@H](CC(C)C)NC(=O)[C@H](CCCCN)NC(=O)[C@H](CO)NC(=O)[C@@H](N)Cc1ccc(O)cc1)[C@@H](C)O)C(=O)N[C@@H](Cc1c[nH]cn1)C(=O)N[C@@H](Cc1ccccc1)C(=O)O` [3102.0944] (H-YSKLTSMHF-OH) here?
Its IC50 is 0.00057 µM.

Which IC50 does the source give for `CC[C@H](C)[C@H](NC(=O)[C@H](CO)NC(=O)[C@@H](N)CCSC)C(=O)N[C@H](C(=O)N[C@@H](CO)C(=O)N[C@@H](Cc1ccccc1)C(=O)N[C@@H](Cc1ccccc1)C(=O)N1CCC[C@H]1C(=O)N[C@@H](Cc1ccccc1)C(=O)O)[C@@H](C)CC` [3102.0947] (H-MSIISFFPF-OH) here?
The IC50 was 0.00017 µM.
